Assay results as given in patent EP3818828A1 (priority 2019, dated 2021).
Where two headings read alike, the source gives them in different places.

What was measured:
Type in all cases: cell-based
Botrytis cinerea = assay: Ex vivo mycelial growth inhibition, growth rate method; settings: 1 mg/mL
Description: (§1) 3-(3',4'-methylenedioxy phenyl)-N-n-propyl acrylamide (at a purity of 99%), 3-(3',4'-methylenedioxy phenyl)-piperidine acrylate (at a purity of 99%), the control agents, 96.5% of chlorothalonil technical (non-systemic broad-spectrum fungicide), 97.2% of carbendazim technical (systemic broad-spectrum fungicide), 97.0% of procymidone technical (systemic fungicide), 96.0% of dimethomorphtechnical ((E,Z)-4-[3-(4-chlorphenyl)3-(3,4-dimethoxy phenyl)acryloyl]morpholine, systemic fungicide), 97.0% of azoxystrobin technical (systemic broad-spectrum fungicide).
(§2) The inhibition of samples for testing on the mycelial growth of plant pathogenic fungi for testing is determined with a growth rate method. 3-(3',4'-methylenedioxy phenyl)-N-n-propyl acrylamide, 3-(3',4'-methylenedioxy phenyl)-piperidine acrylate and five control agents are dissolved with dimethyl sulfoxide (DMSO), then formulated at 5-7 concentrations of different gradients for test following the trial test results, with the same concentration of DMSO as the control solvent, each treatment in triplicate. Fungal cakes with a diameter of 4 mm are taken from the edge of the colony, inoculated into the center of a PDA plate containing different agents of different concentrations and the DMSO control, with one piece of fungal cake inoculated in each plate (with a diameter of […]), and incubated in a constant temperature incubator at a temperature of 22±1.5°C. 7 days later (10-20 days may be needed for some pathogenic fungi), the diameter of the colony is measured with a cross over method according to the mycelial growth profile of the control pathogenic fungi, then the inhibition rate of mycelial growth is calculated.
(§3) The computational formula is as below: the inhibition rate of mycelial growth (%) = [(the diameter of the control colony - the diameter of the treated colony)/the diameter of the control colony] × 100.
(§4) The inhibition results of each agent at a concentration of 1 mg/mL on the mycelial growth of plant pathogenic fungi are shown in Tables 1 and 2.

C. gossypii = assay: as above; settings: for Average Diameter of the Colony: C. gossypii; for inhibition at 1000 µg/mL: Colletotrichum gossypii, read-out: Inhibition Rate
Description: as §1, §2, §3, §4

Exserohilum turcicum = assay: as above; settings: 1 mg/mL
Description: as §1, §2, §3, §4

F. oxysporum f. sp. lini = assay: as above; settings: 1 mg/mL; for inhibition at 1000 µg/mL: Fusarium oxysporum
Description: as §1, §2, §3, §4

[1] = tested on: F. oxysporum f. sp. vasinfectum; assay: as above; settings: 1 mg/mL; for inhibition at 1000 µg/mL: Fusarium oxysporum
Description: as §1, §2, §3, §4

Mycosphaerlla melonis = assay: as above; settings: 1 mg/mL
Description: as §1, §2, §3, §4

Phytophthora capsici = assay: as above; settings: Phytophthora capsici; 1 mg/mL
Description: as §1, §2, §3, §4

Sclerotinia sclerotiorum = assay: as above; settings: 1 mg/mL
Description: as §1, §2, §3, §4

F. graminearum = assay: microbe, parasite or virus in culture; settings: for Average Diameter of the Colony: F. graminearum, 1 mg/mL; for inhibition at 1000 µg/mL: Fusarium graminearum, read-out: Inhibition Rate
Pyricularia grisea = assay: microbe, parasite or virus in culture; settings: for Average Diameter of the Colony: 1 mg/mL; for inhibition at 1000 µg/mL: read-out: Inhibition Rate
Phytophthora infestans [2] = assay: microbe, parasite or virus in culture; settings: for Average Diameter of the Colony: 1 mg/mL
Phytophthora infestans [3] = settings: Phytophthora infestas; 1 mg/mL
Colletotrichum capsici = assay: Ex vivo mycelial growth inhibition, growth rate method; settings: 1 mg/mL
Description: as §1, §2, §3, §4

Coniella diplodiella = assay: as above; settings: 1 mg/mL
Description: as §1, §2, §3, §4

F. verticillioide = assay: as above; settings: 1 mg/mL
Description: as §1, §2, §3, §4

Pythium aphanidermatum = assay: as above; settings: 1 mg/mL
Description: as §1, §2, §3, §4

Rhizoctonia solani = assay: as above; settings: Rhizoctonia solani; 1 mg/mL
Description: as §1, §2, §3, §4

Thanatephorus cucumeris = assay: as above; settings: 1 mg/mL
Description: as §1, §2, §3, §4

Fusarium graminearum = assay: microbe, parasite or virus in culture

Compound: CO/C=C(/C(=O)OC)c1ccccc1Oc1cc(Oc2ccccc2C#N)ncn1 [Azoxystrobin, azoxystrobin]
- Average Diameter of the Colony (Botrytis cinerea): 4.33 cm
- inhibition at 1000 µg/mL (Botrytis cinerea): 51.9%
- Average Diameter of the Colony (C. gossypii; 1 mg/mL): 5.37 cm
- inhibition at 1000 µg/mL (C. gossypii): 40.3%
- Average Diameter of the Colony (Exserohilum turcicum): 6.50 cm
- inhibition at 1000 µg/mL (Exserohilum turcicum): 27.8%
- Average Diameter of the Colony (F. oxysporum f. sp. lini): 5.93 cm
- inhibition at 1000 µg/mL (F. oxysporum f. sp. lini): 34.1%
- Average Diameter of the Colony [1]: 3.03 cm
- inhibition at 1000 µg/mL [1]: 66.3%
- Average Diameter of the Colony (Mycosphaerlla melonis): 3.93 cm
- inhibition at 1000 µg/mL (Mycosphaerlla melonis): 56.3%
- Average Diameter of the Colony (Phytophthora capsici): 6.70 cm
- inhibition at 1000 µg/mL (Phytophthora capsici): 25.6%
- Average Diameter of the Colony (Sclerotinia sclerotiorum): 4.40 cm
- inhibition at 1000 µg/mL (Sclerotinia sclerotiorum): 51.1%
- Average Diameter of the Colony (F. graminearum): 6.23 cm
- inhibition at 1000 µg/mL (F. graminearum): 30.8%
- Average Diameter of the Colony (Pyricularia grisea): 4.67 cm
- inhibition at 1000 µg/mL (Pyricularia grisea): 48.1%
- Average Diameter of the Colony (Phytophthora infestans [2]): 0.00 cm
- inhibition at 1000 µg/mL (Phytophthora infestans [2]; read-out: Inhibition Rate): 100%

Compound: COC(=O)Nc1nc2ccccc2[nH]1 [Carbendazim, carbendazim]
- Average Diameter of the Colony (Phytophthora infestans [3]): 0.00 cm
- Average Diameter of the Colony (Botrytis cinerea): 0.00 cm
- inhibition at 1000 µg/mL (Botrytis cinerea): 100%
- Average Diameter of the Colony (C. gossypii; 1 mg/mL): 0.00 cm
- inhibition at 1000 µg/mL (C. gossypii; C. cossypii, 1 mg/mL): 100%
- Average Diameter of the Colony (Colletotrichum capsici): 0.00 cm
- inhibition at 1000 µg/mL (Colletotrichum capsici; Colletotrichum truncatum): 100%
- Average Diameter of the Colony (Coniella diplodiella): 0.00 cm
- inhibition at 1000 µg/mL (Coniella diplodiella): 100%
- Average Diameter of the Colony (Exserohilum turcicum): 9.00 cm
- inhibition at 1000 µg/mL (Exserohilum turcicum): 0%
- Average Diameter of the Colony (F. oxysporum f. sp. lini): 0.00 cm
- inhibition at 1000 µg/mL (F. oxysporum f. sp. lini): 100%
- Average Diameter of the Colony [1]: 0.00 cm
- inhibition at 1000 µg/mL [1]: 100%
- Average Diameter of the Colony (F. verticillioide): 0.00 cm
- inhibition at 1000 µg/mL (F. verticillioide): 100%
- Average Diameter of the Colony (Mycosphaerlla melonis): 0.00 cm
- inhibition at 1000 µg/mL (Mycosphaerlla melonis): 100%
- Average Diameter of the Colony (Phytophthora capsici): 0.00 cm
- inhibition at 1000 µg/mL (Phytophthora capsici): 100%
- Average Diameter of the Colony (Pythium aphanidermatum): 0.00 cm
- inhibition at 1000 µg/mL (Pythium aphanidermatum): 100%
- Average Diameter of the Colony (Rhizoctonia solani): 0.00 cm
- inhibition at 1000 µg/mL (Rhizoctonia solani): 100%
- Average Diameter of the Colony (Sclerotinia sclerotiorum): 0.00 cm
- inhibition at 1000 µg/mL (Sclerotinia sclerotiorum): 100%
- Average Diameter of the Colony (Thanatephorus cucumeris): 0.00 cm
- inhibition at 1000 µg/mL (Thanatephorus cucumeris): 100%
- Average Diameter of the Colony (Fusarium graminearum; 1 mg/mL): 0.00 cm
- inhibition at 1000 µg/mL (Fusarium graminearum; read-out: Inhibition Rate): 100%
- Average Diameter of the Colony (F. graminearum): 1.17 cm
- inhibition at 1000 µg/mL (F. graminearum): 87%
- Average Diameter of the Colony (Pyricularia grisea): 0.00 cm
- inhibition at 1000 µg/mL (Pyricularia grisea): 100%
- Average Diameter of the Colony (Phytophthora infestans [2]): 6.80 cm
